Calls of active or inactive are those of the source. For most assays here, no stated cut-off is given here; in the data, actives have a measured Kd and inactives only a lower limit.
Columns and labels:
[1] = biological target: Tyrosine-protein kinase SYK (Homo sapiens, UniProt P43405)
Scaffold protein ILK = biological target: T1, Scaffold protein ILK (Homo sapiens, UniProt Q13418)
T1 sequence (Q13418 whole entry): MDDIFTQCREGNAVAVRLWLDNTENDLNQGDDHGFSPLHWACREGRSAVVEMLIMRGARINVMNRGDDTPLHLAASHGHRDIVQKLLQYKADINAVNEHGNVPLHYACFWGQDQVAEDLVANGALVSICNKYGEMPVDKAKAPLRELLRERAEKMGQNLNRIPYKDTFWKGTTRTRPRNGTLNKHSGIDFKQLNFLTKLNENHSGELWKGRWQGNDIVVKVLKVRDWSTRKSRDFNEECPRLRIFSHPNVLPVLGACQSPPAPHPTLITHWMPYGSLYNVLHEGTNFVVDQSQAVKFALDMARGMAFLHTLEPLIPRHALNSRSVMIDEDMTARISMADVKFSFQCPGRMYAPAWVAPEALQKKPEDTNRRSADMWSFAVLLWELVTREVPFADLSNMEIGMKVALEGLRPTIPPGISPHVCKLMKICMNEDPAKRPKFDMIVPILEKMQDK

Aurora kinase B = Aurora kinase B (Homo sapiens, UniProt Q96GD4)
Aurora kinase B, sequence (Q96GD4 whole entry): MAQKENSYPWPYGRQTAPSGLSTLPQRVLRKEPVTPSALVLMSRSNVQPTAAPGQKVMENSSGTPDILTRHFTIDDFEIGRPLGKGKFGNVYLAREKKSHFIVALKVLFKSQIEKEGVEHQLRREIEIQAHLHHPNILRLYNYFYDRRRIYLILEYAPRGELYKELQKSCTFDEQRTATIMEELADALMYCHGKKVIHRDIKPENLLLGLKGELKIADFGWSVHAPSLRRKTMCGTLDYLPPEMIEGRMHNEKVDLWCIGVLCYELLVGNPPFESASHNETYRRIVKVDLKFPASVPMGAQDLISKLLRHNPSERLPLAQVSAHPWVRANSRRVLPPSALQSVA

TGF-beta receptor type-1 = biological target: T2, TGF-beta receptor type-1 (Homo sapiens, UniProt P36897)
T2 sequence (P36897 whole entry): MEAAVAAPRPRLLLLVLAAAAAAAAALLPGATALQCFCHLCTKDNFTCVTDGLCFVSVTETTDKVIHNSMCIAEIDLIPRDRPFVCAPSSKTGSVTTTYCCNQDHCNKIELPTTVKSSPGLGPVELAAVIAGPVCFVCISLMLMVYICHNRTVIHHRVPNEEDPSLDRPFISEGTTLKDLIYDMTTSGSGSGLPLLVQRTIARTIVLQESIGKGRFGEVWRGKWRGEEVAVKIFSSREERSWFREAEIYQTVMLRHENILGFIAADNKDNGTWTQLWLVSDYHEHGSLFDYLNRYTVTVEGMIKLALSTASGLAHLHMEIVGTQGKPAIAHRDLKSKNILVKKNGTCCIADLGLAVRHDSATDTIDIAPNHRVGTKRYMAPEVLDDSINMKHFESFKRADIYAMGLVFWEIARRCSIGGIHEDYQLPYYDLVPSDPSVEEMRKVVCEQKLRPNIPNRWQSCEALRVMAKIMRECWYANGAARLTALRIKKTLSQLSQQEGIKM

[2] = biological target: Serine/threonine-protein kinase MRCK beta (Homo sapiens, UniProt Q9Y5S2)
Serine/threonine-protein kinase MRCK beta, sequence (Q9Y5S2 whole entry): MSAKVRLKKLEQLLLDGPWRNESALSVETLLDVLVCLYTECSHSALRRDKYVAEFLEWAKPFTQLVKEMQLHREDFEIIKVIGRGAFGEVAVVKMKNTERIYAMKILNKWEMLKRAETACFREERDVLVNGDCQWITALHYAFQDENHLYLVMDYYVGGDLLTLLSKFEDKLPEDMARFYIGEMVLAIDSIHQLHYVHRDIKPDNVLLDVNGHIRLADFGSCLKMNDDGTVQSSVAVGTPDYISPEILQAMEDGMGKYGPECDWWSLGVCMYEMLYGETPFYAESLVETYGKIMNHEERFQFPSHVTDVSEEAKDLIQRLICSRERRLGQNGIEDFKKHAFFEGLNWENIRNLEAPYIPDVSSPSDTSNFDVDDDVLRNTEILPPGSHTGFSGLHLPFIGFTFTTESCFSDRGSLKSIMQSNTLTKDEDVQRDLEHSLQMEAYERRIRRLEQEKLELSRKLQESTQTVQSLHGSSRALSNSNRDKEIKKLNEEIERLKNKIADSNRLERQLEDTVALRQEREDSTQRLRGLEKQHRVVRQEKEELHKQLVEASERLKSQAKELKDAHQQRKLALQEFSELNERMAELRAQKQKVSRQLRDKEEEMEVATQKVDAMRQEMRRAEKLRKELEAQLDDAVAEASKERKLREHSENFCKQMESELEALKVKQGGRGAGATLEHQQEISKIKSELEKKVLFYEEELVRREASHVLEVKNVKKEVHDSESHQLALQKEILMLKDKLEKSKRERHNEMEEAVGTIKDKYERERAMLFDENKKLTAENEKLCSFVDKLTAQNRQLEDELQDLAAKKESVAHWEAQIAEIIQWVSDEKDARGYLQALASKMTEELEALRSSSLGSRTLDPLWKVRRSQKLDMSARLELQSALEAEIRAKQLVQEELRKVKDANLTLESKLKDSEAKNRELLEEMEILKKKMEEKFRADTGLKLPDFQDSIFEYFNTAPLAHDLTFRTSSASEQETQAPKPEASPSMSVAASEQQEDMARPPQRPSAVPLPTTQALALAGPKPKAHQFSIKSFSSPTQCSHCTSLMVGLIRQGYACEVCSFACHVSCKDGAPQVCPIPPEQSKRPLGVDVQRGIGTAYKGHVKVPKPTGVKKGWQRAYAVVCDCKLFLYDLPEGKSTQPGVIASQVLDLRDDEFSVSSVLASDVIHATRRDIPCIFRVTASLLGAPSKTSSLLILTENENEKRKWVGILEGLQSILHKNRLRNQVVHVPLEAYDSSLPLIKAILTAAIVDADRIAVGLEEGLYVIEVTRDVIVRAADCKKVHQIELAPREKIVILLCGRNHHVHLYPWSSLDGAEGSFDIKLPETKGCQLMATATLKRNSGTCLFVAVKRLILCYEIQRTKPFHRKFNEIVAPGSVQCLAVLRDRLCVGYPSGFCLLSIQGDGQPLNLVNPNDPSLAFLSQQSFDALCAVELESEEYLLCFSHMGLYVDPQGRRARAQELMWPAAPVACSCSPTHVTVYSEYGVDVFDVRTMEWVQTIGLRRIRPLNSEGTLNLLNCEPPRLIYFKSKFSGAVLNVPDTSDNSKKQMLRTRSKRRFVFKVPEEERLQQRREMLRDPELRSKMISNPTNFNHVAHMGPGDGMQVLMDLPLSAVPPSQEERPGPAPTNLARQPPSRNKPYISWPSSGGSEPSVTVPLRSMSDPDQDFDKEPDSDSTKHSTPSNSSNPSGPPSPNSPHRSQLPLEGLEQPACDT

Deoxycytidine kinase = Deoxycytidine kinase (Homo sapiens, UniProt P27707)
Deoxycytidine kinase, sequence (P27707 whole entry): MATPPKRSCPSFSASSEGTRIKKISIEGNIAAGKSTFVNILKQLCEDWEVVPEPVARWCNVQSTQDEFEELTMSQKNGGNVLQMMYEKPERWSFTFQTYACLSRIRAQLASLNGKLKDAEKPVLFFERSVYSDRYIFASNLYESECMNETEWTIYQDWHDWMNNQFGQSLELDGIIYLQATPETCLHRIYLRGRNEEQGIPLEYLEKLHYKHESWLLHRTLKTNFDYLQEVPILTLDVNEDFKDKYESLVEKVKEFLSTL

[3] = biological target: Casein kinase II subunit alpha' (Homo sapiens, UniProt P19784)
Casein kinase II subunit alpha', sequence (P19784 whole entry, canonical isoform): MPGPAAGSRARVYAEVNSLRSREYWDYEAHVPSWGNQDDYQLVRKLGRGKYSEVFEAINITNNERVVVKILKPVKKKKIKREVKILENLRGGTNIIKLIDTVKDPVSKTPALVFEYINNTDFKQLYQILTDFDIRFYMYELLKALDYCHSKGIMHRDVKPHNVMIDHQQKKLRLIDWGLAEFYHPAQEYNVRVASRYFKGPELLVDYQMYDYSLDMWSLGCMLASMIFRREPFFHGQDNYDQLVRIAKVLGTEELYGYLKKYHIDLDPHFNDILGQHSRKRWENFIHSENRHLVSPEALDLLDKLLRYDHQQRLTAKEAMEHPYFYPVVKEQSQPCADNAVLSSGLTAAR

[4] = biological target: Casein kinase I isoform alpha (Homo sapiens, UniProt P48729)
Casein kinase I isoform alpha, sequence (P48729 whole entry, canonical isoform): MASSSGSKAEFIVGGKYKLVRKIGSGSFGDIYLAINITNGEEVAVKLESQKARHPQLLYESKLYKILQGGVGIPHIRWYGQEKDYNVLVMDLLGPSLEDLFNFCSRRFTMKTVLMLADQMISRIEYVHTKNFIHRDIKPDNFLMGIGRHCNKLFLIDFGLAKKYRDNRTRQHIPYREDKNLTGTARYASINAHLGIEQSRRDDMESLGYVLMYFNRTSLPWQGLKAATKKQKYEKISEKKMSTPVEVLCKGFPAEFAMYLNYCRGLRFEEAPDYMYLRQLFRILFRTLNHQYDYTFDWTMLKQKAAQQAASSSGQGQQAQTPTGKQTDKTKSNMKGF

[5] = biological target: Bone morphogenetic protein receptor type-1A (Homo sapiens, UniProt P36894)
Bone morphogenetic protein receptor type-1A, sequence (P36894 whole entry, canonical isoform): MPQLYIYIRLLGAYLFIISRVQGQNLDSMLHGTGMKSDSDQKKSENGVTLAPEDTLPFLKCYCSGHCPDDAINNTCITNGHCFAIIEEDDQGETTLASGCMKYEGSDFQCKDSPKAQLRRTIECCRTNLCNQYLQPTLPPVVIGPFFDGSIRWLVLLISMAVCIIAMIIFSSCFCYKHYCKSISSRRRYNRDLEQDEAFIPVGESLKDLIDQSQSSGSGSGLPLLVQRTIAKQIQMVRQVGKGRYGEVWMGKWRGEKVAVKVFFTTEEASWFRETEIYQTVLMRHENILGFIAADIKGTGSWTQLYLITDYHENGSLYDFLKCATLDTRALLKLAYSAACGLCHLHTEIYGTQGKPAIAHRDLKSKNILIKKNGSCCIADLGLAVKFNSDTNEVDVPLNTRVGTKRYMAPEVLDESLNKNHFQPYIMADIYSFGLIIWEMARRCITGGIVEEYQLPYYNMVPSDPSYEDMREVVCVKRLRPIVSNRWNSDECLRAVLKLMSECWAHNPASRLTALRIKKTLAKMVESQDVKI

[6] = biological target: Casein kinase I isoform gamma-1 (Homo sapiens, UniProt Q9HCP0)
Casein kinase I isoform gamma-1, sequence (Q9HCP0 whole entry, canonical isoform): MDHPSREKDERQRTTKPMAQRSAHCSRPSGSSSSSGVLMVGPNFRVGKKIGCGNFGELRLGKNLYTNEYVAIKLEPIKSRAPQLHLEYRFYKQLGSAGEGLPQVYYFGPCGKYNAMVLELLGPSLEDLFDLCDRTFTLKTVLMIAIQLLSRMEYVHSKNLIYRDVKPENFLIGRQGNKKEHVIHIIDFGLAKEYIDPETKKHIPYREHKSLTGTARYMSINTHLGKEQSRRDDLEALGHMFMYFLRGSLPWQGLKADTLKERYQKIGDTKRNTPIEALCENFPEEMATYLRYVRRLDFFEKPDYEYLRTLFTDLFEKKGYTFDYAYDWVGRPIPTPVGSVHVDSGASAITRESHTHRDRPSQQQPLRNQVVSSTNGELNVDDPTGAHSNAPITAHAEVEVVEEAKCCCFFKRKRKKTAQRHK

[7] = biological target: T3, Serine/threonine-protein kinase Nek9 (Homo sapiens, UniProt Q8TD19)
T3 sequence (Q8TD19 whole entry): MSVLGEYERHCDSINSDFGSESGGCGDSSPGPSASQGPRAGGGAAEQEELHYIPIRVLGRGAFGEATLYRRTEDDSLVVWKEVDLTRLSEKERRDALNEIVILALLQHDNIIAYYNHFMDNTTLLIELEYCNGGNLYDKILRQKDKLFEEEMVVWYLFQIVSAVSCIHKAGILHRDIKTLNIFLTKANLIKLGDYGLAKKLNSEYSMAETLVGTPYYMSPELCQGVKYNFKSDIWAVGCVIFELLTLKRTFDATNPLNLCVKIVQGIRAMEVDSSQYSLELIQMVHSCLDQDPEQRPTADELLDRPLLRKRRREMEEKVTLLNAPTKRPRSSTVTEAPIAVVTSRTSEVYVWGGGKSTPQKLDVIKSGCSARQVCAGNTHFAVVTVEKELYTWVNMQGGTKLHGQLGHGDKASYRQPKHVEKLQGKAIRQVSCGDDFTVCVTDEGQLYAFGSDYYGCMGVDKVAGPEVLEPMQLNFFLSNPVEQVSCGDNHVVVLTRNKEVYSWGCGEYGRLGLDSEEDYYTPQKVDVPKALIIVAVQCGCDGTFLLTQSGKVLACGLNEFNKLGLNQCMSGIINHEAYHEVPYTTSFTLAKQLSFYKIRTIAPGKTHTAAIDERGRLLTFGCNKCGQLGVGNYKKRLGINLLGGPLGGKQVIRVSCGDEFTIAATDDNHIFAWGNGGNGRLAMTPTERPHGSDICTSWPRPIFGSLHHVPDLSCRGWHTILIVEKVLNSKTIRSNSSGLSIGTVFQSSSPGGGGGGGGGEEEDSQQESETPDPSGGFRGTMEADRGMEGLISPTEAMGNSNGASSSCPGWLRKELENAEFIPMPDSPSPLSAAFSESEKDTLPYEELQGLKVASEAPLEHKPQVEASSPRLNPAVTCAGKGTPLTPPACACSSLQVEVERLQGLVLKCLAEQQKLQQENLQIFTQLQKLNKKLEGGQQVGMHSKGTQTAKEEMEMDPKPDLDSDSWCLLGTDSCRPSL

[8] = biological target: Serine/threonine-protein kinase N1 (Homo sapiens, UniProt Q16512)
Serine/threonine-protein kinase N1, sequence (Q16512 whole entry): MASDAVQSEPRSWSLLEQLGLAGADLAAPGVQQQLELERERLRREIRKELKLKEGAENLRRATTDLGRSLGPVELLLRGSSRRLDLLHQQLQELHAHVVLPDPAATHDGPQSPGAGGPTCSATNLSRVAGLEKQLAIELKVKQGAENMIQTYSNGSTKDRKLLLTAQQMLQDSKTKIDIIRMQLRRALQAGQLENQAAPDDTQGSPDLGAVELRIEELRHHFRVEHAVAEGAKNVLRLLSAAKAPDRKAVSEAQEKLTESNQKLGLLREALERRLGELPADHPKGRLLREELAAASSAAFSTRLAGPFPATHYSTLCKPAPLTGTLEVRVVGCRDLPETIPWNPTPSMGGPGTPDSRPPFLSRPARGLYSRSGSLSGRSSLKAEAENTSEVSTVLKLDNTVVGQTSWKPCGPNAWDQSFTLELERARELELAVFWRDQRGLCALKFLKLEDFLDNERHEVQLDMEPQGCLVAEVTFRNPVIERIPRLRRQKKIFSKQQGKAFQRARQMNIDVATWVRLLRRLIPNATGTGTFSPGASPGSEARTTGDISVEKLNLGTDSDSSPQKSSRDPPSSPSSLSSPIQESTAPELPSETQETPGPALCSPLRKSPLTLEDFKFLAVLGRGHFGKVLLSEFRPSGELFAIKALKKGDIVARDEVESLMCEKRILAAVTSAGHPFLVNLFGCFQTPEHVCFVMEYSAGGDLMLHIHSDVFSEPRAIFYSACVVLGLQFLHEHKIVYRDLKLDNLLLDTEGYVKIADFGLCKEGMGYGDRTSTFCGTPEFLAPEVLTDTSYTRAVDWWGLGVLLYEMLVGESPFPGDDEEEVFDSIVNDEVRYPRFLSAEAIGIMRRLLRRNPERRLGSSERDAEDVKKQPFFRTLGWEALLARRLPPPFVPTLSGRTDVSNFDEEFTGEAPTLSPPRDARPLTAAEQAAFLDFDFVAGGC

SMILES | Kd [1] | Kd (Scaffold protein ILK) | Kd (Aurora kinase B) | Kd (TGF-beta receptor type-1) | Kd [2] | Kd (Deoxycytidine kinase) | Kd [3] | Kd [4] | Kd [5] | Kd [6] | Kd [8] | Kd [7]
C=CC(=O)Nc1cc(Nc2nccc(-c3cn(C)c4ccccc34)n2)c(OC)cc1N(C)CCN(C)C [OSIMERTINIB] | > 30 µM (inactive) | > 30 µM (inactive) | > 30 µM (inactive) | > 30 µM (inactive) | > 30 µM (inactive) | > 30 µM (inactive) | > 30 µM (inactive) | > 30 µM (inactive) | > 30 µM (inactive) | > 30 µM (inactive) | > 30 µM (inactive) | > 30 µM (inactive)
O=C(NC[C@H](O)CO)c1ccncc1Nc1ccc(I)cc1F [PIMASERTIB] | > 30 µM (inactive) | > 30 µM (inactive) | > 30 µM (inactive) | > 30 µM (inactive) | > 30 µM (inactive) | > 30 µM (inactive) | > 30 µM (inactive) | > 30 µM (inactive) | > 30 µM (inactive) | > 30 µM (inactive) | > 30 µM (inactive) | > 30 µM (inactive)
COCCN1CCN(Cc2ccc(-c3n[nH]c4c3C(=O)c3c(NC(=O)NN5CCOCC5)cccc3-4)cc2)CC1 [RGB-286638] | > 30 µM (inactive) | > 30 µM (inactive) | > 30 µM (inactive) | > 30 µM (inactive) | 1.02 µM (active) | > 30 µM (inactive) | 0.008 µM (active) | 8.07 µM (active) | > 30 µM (inactive) | 3.18 µM (active) | > 30 µM (inactive) | > 30 µM (inactive)
C=CCN(/C=C1/C(=O)O[C@H](COC)[C@@]2(C)C1=C(O)C(=O)C1=C2[C@H](OC(C)=O)C[C@]2(C)C(=O)CC[C@@H]12)CC=C [SONOLISIB] | > 30 µM (inactive) | > 30 µM (inactive) | > 30 µM (inactive) | > 30 µM (inactive) | > 30 µM (inactive) | > 30 µM (inactive) | > 30 µM (inactive) | > 30 µM (inactive) | > 30 µM (inactive) | > 30 µM (inactive) | > 30 µM (inactive) | > 30 µM (inactive)
Cn1c(=O)c(F)c(Nc2ccc(I)cc2F)c2c(=O)n(C[C@@H](O)CO)cnc21 [TAK-733] | > 30 µM (inactive) | > 30 µM (inactive) | > 30 µM (inactive) | > 30 µM (inactive) | > 30 µM (inactive) | > 30 µM (inactive) | > 30 µM (inactive) | > 30 µM (inactive) | > 30 µM (inactive) | > 30 µM (inactive) | > 30 µM (inactive) | > 30 µM (inactive)
CNC(=O)c1cccc(-c2ccc3c(N4CCOC[C@@H]4C)nc(N4CCOC[C@@H]4C)nc3n2)c1 [VISTUSERTIB] | > 30 µM (inactive) | > 30 µM (inactive) | > 30 µM (inactive) | > 30 µM (inactive) | > 30 µM (inactive) | > 30 µM (inactive) | > 30 µM (inactive) | > 30 µM (inactive) | > 30 µM (inactive) | > 30 µM (inactive) | > 30 µM (inactive) | > 30 µM (inactive)

Further lines, with some results ahead:

Kd [1] | Kd (Scaffold protein ILK) | Kd (Aurora kinase B) | Kd (TGF-beta receptor type-1) | Kd [2] | Kd (Deoxycytidine kinase) | Kd [3] | Kd [4] | Kd [5] | Kd [6] | Kd [8] | SMILES | Kd [7]
> 30 µM (inactive) | > 30 µM (inactive) | > 30 µM (inactive) | > 30 µM (inactive) | > 30 µM (inactive) | > 30 µM (inactive) | > 30 µM (inactive) | > 30 µM (inactive) | > 30 µM (inactive) | > 30 µM (inactive) | > 30 µM (inactive) | FC(F)(F)c1ccc(CNc2ccc(Cc3c[nH]c4ncc(Cl)cc34)cn2)cn1 [PEXIDARTINIB] | > 30 µM (inactive)
> 30 µM (inactive) | > 30 µM (inactive) | > 30 µM (inactive) | > 30 µM (inactive) | > 30 µM (inactive) | > 30 µM (inactive) | > 30 µM (inactive) | > 30 µM (inactive) | > 30 µM (inactive) | > 30 µM (inactive) | > 30 µM (inactive) | CC(C)(O)CC(=O)NCCn1ccc2ncnc(Nc3ccc(Oc4cccc(C(F)(F)F)c4)c(Cl)c3)c21 [TAK-285] | > 30 µM (inactive)
> 30 µM (inactive) | > 30 µM (inactive) | > 30 µM (inactive) | > 30 µM (inactive) | > 30 µM (inactive) | > 30 µM (inactive) | > 30 µM (inactive) | > 30 µM (inactive) | > 30 µM (inactive) | > 30 µM (inactive) | > 30 µM (inactive) | Cc1cc(C(=O)Nc2cc(Oc3ccc4nc(NC(=O)C5CC5)cn4n3)ccc2C)n(C)n1 [TAK-593] | > 30 µM (inactive)
> 30 µM (inactive) | 0.032 µM | > 30 µM (inactive) | > 30 µM (inactive) | > 30 µM (inactive) | > 30 µM (inactive) | > 30 µM (inactive) | > 30 µM (inactive) | > 30 µM (inactive) | > 30 µM (inactive) | > 30 µM (inactive) | CNC(=O)c1cc(COc2nnc(Nc3ccc(Cl)cc3)c3ccoc23)ccn1 [TELATINIB] | > 30 µM (inactive)
> 30 µM (inactive) | > 30 µM (inactive) | > 30 µM (inactive) | > 30 µM (inactive) | > 30 µM (inactive) | > 30 µM (inactive) | > 30 µM (inactive) | > 30 µM (inactive) | > 30 µM (inactive) | > 30 µM (inactive) | > 30 µM (inactive) | Cc1cc(-c2cc(OC(=O)c3ccccc3)ccc2Cl)cc2nnc(Nc3ccc(OCCN4CCCC4)cc3)nc12 [TG100-801] | > 30 µM (inactive)
> 30 µM (inactive) | > 30 µM (inactive) | > 30 µM (inactive) | > 30 µM (inactive) | > 30 µM (inactive) | > 30 µM (inactive) | > 30 µM (inactive) | > 30 µM (inactive) | > 30 µM (inactive) | > 30 µM (inactive) | > 30 µM (inactive) | C[C@@H]1COC(Nc2ccc3ncnc(Nc4ccc(OCc5nccs5)c(Cl)c4)c3c2)=N1 [VARLITINIB] | > 30 µM (inactive)
> 30 µM (inactive) | > 30 µM (inactive) | > 30 µM (inactive) | > 30 µM (inactive) | > 30 µM (inactive) | > 30 µM (inactive) | > 30 µM (inactive) | > 30 µM (inactive) | > 30 µM (inactive) | > 30 µM (inactive) | > 30 µM (inactive) | NC(=O)c1ccc(N(C(N)=O)c2c(F)cccc2F)nc1-c1ccc(F)cc1F [VX-702] | > 30 µM (inactive)
